Measured values as given in publication PMC8592027, “Structure-Guided Design of D-Galactal Derivatives with High Affinity and Selectivity for the Galectin-8 N-Terminal Domain” (ACS Medicinal Chemistry Letters, 2021).

Legend:
Type in all cases: binding
[1] = target: T1, galectin-4N (N-terminal domain) (Homo sapiens, UniProt P56470); assay: Competitive fluorescence polarization assay, galectin-4N; details: mean ± SEM of n = 4–8
T1 construct: galectins (N = N-terminal domain, C = C-terminal domain); made in house
T1 sequence (P56470 19-150 limits assumed): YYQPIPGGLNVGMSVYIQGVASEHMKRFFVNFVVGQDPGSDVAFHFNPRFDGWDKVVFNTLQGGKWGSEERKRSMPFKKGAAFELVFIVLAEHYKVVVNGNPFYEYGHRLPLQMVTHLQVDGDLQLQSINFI
Method: (§1) 1. Competitive fluorescence polarization experiments:
(§2) Human galectins -1, -3, -4N, -4C, -7, -8N, -9N, and -9C were expressed and purified as previously described 30,41. Fluorescence polarisation experiments were performed using the PHERAstar FS plat e reader (software version 2.10 R3), and the fluorescence anisotropy of fluorescein tagged probes was measured by excitation at 485 nm and emission at 520 nm. The specific conditions for galectins -1, -3, -4N, -4C, -7, -8N, -9N, and -9C were kept as report ed30,41,42. The synthesised compounds were dissolved in pure DMSO at 20 mM concentration and diluted in PBS to 3-6 different concentrations, and each concentration was tested in duplicate. The highest inhibitor concentrations tested were 1.5 mM. The

galectin-1 = target: T2, galectin-1 (Homo sapiens, UniProt P09382); assay: Competitive fluorescence polarization assay, galectin-1; details: mean ± SEM of n = 4–8
T2 construct: made in house
Method: as §1, §2

[2] = target: T3, galectin-8N (galectin-8 N-terminal domain) (Homo sapiens, UniProt O00214); assay: Competitive fluorescence polarization assay, galectin-8N; details: for Kd: mean ± SEM of n = 4–8
T3 construct: selective ligand for the galectin-8 N-terminal domain (galectin-8N); made in house
T3 sequence (O00214 19-152 limits assumed): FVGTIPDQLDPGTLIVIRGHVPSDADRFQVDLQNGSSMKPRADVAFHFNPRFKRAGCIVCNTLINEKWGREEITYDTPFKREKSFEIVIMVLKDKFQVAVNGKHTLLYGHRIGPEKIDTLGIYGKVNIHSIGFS
Method: All synthesized D-galactal derivatives had higher binding affinities for galectin-8N than D-galactal 3.
as §1, §2

[3] = target: T4, galectin-8C (C-terminal domain) (Homo sapiens, UniProt O00214); assay: Competitive fluorescence polarization assay, galectin-8C; details: mean ± SEM of n = 4–8
T4 construct: galectins (N = N-terminal domain, C = C-terminal domain)
T4 sequence (O00214 187-317 limits assumed): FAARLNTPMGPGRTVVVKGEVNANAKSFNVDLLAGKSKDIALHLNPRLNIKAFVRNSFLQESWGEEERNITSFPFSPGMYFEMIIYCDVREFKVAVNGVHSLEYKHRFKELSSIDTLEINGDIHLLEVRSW

galectin-2 = target: T5, galectin-2 (Homo sapiens, UniProt P05162); assay: Competitive fluorescence polarization assay, galectin-2; details: mean ± SEM of n = 4–8
T5 sequence (P05162 1-132): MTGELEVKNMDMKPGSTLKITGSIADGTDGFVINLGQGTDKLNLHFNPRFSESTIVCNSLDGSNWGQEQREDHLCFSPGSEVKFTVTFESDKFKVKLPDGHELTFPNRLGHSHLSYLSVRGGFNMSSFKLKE

[4] = target: T6, galectin-9C (C-terminal domain) (Homo sapiens, UniProt O00182); assay: Competitive fluorescence polarization assay, galectin-9C; details: mean ± SEM of n = 4–8
T6 construct: galectins (N = N-terminal domain, C = C-terminal domain); made in house
Method: as §1, §2

galectin-3 = target: T7, galectin-3 (Homo sapiens, UniProt P17931); assay: Competitive fluorescence polarization assay, galectin-3; details: mean ± SEM of n = 4–8
T7 construct: made in house
Method: as §1, §2

[5] = target: T8, galectin-9N (N-terminal domain) (Homo sapiens, UniProt O00182); assay: Competitive fluorescence polarization assay, galectin-9N; details: mean ± SEM of n = 4–8
T8 construct: galectins (N = N-terminal domain, C = C-terminal domain); made in house
Method: as §1, §2

[6] = target: T9, galectin-4C (C-terminal domain) (Homo sapiens, UniProt P56470); assay: Competitive fluorescence polarization assay, galectin-4C; details: mean ± SEM of n = 4–8
T9 construct: galectins (N = N-terminal domain, C = C-terminal domain); made in house
T9 sequence (P56470 194-323 limits assumed): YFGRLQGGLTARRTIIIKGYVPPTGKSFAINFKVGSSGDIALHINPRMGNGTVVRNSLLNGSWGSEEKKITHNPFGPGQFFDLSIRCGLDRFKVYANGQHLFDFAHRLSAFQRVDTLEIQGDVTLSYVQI
Method: as §1, §2

T7 sequence (P17931 whole entry): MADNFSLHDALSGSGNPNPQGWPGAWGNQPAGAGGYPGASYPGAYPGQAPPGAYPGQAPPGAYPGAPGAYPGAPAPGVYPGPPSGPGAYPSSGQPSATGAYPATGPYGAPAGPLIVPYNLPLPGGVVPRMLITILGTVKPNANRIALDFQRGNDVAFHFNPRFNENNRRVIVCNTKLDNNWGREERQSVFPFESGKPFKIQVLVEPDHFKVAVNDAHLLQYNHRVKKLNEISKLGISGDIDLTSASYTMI
T8 sequence (O00182 17-148 limits assumed): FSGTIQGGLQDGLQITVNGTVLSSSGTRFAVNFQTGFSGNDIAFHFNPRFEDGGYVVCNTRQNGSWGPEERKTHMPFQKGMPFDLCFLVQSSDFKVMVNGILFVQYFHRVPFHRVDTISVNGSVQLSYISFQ
T6 sequence (O00182 227-355 limits assumed): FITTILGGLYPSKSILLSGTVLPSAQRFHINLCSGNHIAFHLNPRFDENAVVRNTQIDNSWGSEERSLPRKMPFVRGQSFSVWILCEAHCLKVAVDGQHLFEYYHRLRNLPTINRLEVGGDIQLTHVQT
T2 sequence (P09382 whole entry): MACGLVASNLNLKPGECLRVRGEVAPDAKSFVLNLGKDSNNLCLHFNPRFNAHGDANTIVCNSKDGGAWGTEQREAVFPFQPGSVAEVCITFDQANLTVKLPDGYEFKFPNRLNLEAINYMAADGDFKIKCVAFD

| Compound | Kd [1] [µM] | Kd (galectin-1) [µM] | Kd [2] [µM] | Kd [3] [µM] | Kd (galectin-2) [µM] | Kd [4] [µM] | Kd (galectin-3) [µM] | Kd [5] [µM] | Kd [6] [µM] | higher affinity for galectin-8N compared to the methyl β-D-galactopyranoside [2] [fold] |
| --- | --- | --- | --- | --- | --- | --- | --- | --- | --- | --- |
| COC(=O)c1ccc2ccc(CO[C@@H]3C=CO[C@H](CO)[C@@H]3O)nc2c1 [compound 8] | 1300 ± 12 | > 1500 | 230 ± 16 | > 1500 | > 1500 | > 1500 | 1700 ± 40 | 1000 ± 51 | 3700 ± 250 | – |
| CCOC(=O)c1ccc2c(c1)nc(CO[C@@H]1C=CO[C@H](CO)[C@@H]1O)n2C [5b] | – | 840 ± 20 | 690 ± 53 | 1500 ± 180 | – | – | 680 ± 37 | – | – | – |
| COC(=O)c1ccc2nc(CO[C@@H]3C=CO[C@H](CO)[C@@H]3O)[nH]c2c1 [5c] | 3200 | > 1500 | 180 ± 19 | 3000 ± 300 | – | > 1500 | 1200 ± 287 | > 1500 | 2500 | – |
| OC[C@H]1OC=C[C@@H](O)[C@H]1O [compound 3, D-galactal] | 2400 ± 13 | 1600 ± 140 | 1300 ± 72 | 4100 ± 470 | – | 4800 | 3300 ± 650 | > 1500 | 5300 | 5 |
| COC(=O)c1ccc2nc(CO[C@@H]3C=CO[C@H](CO)[C@@H]3O)n(C)c2c1 [5a] | 1700 ± 60 | 2200 ± 138 | 400 ± 34 | 3000 ± 380 | – | – | 1300 ± 130 | > 1500 | 2600 ± 230 | – |
| Cn1c(CO[C@@H]2C=CO[C@H](CO)[C@@H]2O)nc2cc(C(=O)O)ccc21 [6b] | 3600 | 1100 ± 87 | 810 ± 54 | 3000 ± 30 | – | > 1500 | 770 ± 129 | > 1500 | 2500 ± 300 | – |
